The results in this text go back to US5891895A, “Hydroxypyridine derivatives their production and use” (Takeda Chemical Industries, Ltd., priority 1996, dated 1999).

The test system of the first assay is coronary blood flow. The assay is described as follows: Coronary blood flow-increasing effect in anesthetized dogs (administration into the coronary artery). The class given is in vivo. As to conditions: 30 μg/dog into the coronary artery, anesthetized beagle dogs. The procedure:
Coronary blood flow-increasing effect in anesthetized dogs (administration into the coronary artery)
Method: After beagle dogs (10 to 12 kg) were anesthetized with pentobarbital, the chest was opened under artificial respiration. A bypass fitted with an electromagnetic flowmeter (Nihon Kohden) was prepared between the left coronary artery and the left carotid artery, and the coronary blood flow was measured. Each test compound was dissolved in 50% polyethylene glycol in physiological saline, 50% DMF in physiological saline or DMF for administration (30 μg/dog) into the coronary artery through the bypass.
Results: The greatest percentage change (% of basal flow) and duration (expressed as half-time (T1/2) in which the effect is reduced to half) are shown in Table 14.
Turning to `CC(C)(C)O/N=C(/c1cccc(Br)c1)c1ncccc1O` [Compound 1, (Z)-2-(3-bromo-α-t-butoxyiminobenzyl)-3-hydroxypyridine], the “duration (T1/2), half-time in which the effect is reduced to half” value was 6.7 min and the greatest percentage change is given as 133 % of basal flow.
In the case of `CC(C)(C)O/N=C(/c1cccc(Br)c1)c1c(O)ccc[n+]1[O-]` [Compound 3, (Z)-2-(3-bromo-α-t-butoxyiminobenzyl)-3-hydroxypyridine 1-oxide], the “duration (T1/2), half-time in which the effect is reduced to half” value was 24.4 min and the greatest percentage change is on record as 155 % of basal flow.
For the compound `CC(C)(C)O/N=C(/c1ccc(Cl)cc1)c1c(O)ccc[n+]1[O-]` [Compound 7, (Z)-2-[α-(t-butoxyimino)-4-chlorobenzyl]-3-hydroxypyridine N-oxide], the “duration (T1/2), half-time in which the effect is reduced to half” value is on record as 18.6 min and the greatest percentage change was 71 % of basal flow.
As for `CC(C)(C)O/N=C(/c1ccc(Cl)c(Cl)c1)c1c(O)ccc[n+]1[O-]` [Compound 11, (Z)-2-[α-(t-butoxyimino)-3,4-dichlorobenzyl]-3-hydroxypyridine N-oxide], the “duration (T1/2), half-time in which the effect is reduced to half” value is given as 30.5 min and the greatest percentage change is reported as 66 % of basal flow.
As for `CC(C)(C)O/N=C(/c1ccc(F)c(Br)c1)c1ncccc1O` [Compound 16, (Z)-2-(3-bromo-α-t-butoxyimino-4-fluorobenzyl)-3-hydroxypyridine], the “duration (T1/2), half-time in which the effect is reduced to half” value was 43.5 min and the greatest percentage change is 136 % of basal flow.
Consider `CC(C)(C)O/N=C(/c1cccc([N+](=O)[O-])c1)c1ncccc1O` [Compound 23, (Z)-2-[α-(t-butoxyimino)-3-nitrobenzyl]-3-hydroxypyridine], for which the “duration (T1/2), half-time in which the effect is reduced to half” value was found to be 5.3 min and the greatest percentage change is 134 % of basal flow.
In the case of `CC(C)(C)N/N=C(\c1cccc(Br)c1)c1ncccc1O` [Compound 27, (E)-2-(3-bromo-α-t-butylhydrazinobenzyl)-3-hydroxypyridine], the “duration (T1/2), half-time in which the effect is reduced to half” value is on record as 74.6 min and the greatest percentage change is recorded as 77 % of basal flow.

Another assay concerns spontaneously hypertensive rats (SHR). The assay can be described thus: Antihypertensive effect in rats (SHR). To be noted: 0.3 mg/kg orally. The class given is in vivo. The procedure: (§1) Antihypertensive effect in rats
(§2) Method: 23 to 27-week-old spontaneously hypertensive rats (SHR) or normotensive rats (Wistar-Kyoto rats (WKY)) were anesthetized with pentobarbital (60 mg/kg, i.p.). A polyethylene catheter filled with physiological saline containing 20% heparin was inserted into the left femoral artery and left in place. The other end of the catheter was tunneled subcutaneously to the back and fixed there. After one night, the animals were used in the experiment in the fasting state. Blood pressure was recorded on an ink-writing recorder through the arterial catheter via a pressure transducer. Blood pressure was estimated from flood pressure waves recorded on the recorder. After the blood pressure was stabilized, the test compounds (vehicle (0.5% methylcellulose, […]) or Compound 16 (0.3 mg/kg)) were administered orally.
(§3) Results: The changes in blood pressure and heart rate after administration of the test compounds are given as % of pretreatment basal values (percentage changes) in FIGS. 1 and 2. All values are presented as means±standard error.
For the compound `CC(C)(C)O/N=C(/c1ccc(F)c(Br)c1)c1ncccc1O` [Compound 16, (Z)-2-(3-bromo-α-t-butoxyimino-4-fluorobenzyl)-3-hydroxypyridine], the “duration of antihypertensive effect” value is on record as “long duration”, the “effect on heart rate” value was “little effect” and the “onset of antihypertensive effect after administration” value is 2 h.

Still in this assay, the particulars now being: 0.3 mg/kg orally, % of pretreatment basal values.
As for `CC(C)(C)O/N=C(/c1ccc(F)c(Br)c1)c1ncccc1O` [Compound 16, (Z)-2-(3-bromo-α-t-butoxyimino-4-fluorobenzyl)-3-hydroxypyridine], the “greatest change in blood pressure (antihypertensive effect)” value is given as 18%.

The subject of another assay is rat aorta preparations. The assay can be described thus: Vasorelaxant effect on rat aorta preparations: contractions induced by tetraethyl ammonium chloride (TEA) and barium chloride (BaCl2). The class given is cell-based, Male Wistar rats. As to conditions: 0.1 μM, TEA (30-45 mM) and BaCl2 (0.3 mM), read-out: constriction inhibitory ratio. Here is the method: (§4) Vasorelaxant effect on rat aorta preparations
Effects on contractions induced by tetraethyl ammonium chloride (TEA) and barium chloride (BaCl2)
(§5) Method: Male Wistar rats (10 to 13 weeks old) were used. After exsanguination, the aorta was isolated. Aortic rings (5 mm long) were prepared and then suspended in a bath filled with oxygenated (95% O2 -5% CO2) Krebs solution (36° C.). One end of each ring preparation was fixed and the other end was connected to a tension transducer (Nihon Kohden), and tension of the ring preparation was measured. After an equilibration period of one hour, TEA (30-45 mM) and BaCl2 (0.3 mM) were added in the bath to produce vasoconstriction. After the contractions reached a steady state (after about 15 min.), each test compound was added and its relaxant effect was investigated.
`CC(C)(C)O/N=C(/c1cccc(Br)c1)c1ncccc1O` [Compound 1, (Z)-2-(3-bromo-α-t-butoxyiminobenzyl)-3-hydroxypyridine]: the inhibition at 0.1 µM is 57%.
`CC(C)(C)O/N=C(/c1ccc(F)c(Br)c1)c1ncccc1O` [Compound 16, (Z)-2-(3-bromo-α-t-butoxyimino-4-fluorobenzyl)-3-hydroxypyridine]: the inhibition at 0.1 µM was determined as 87%.
With `CC(C)(C)O/N=C(/c1cccc([N+](=O)[O-])c1)c1ncccc1O` [Compound 23, (Z)-2-[α-(t-butoxyimino)-3-nitrobenzyl]-3-hydroxypyridine], the inhibition at 0.1 µM is 4%.
In the case of `CC(C)(C)N/N=C(\c1cccc(Br)c1)c1ncccc1O` [Compound 27, (E)-2-(3-bromo-α-t-butylhydrazinobenzyl)-3-hydroxypyridine], the inhibition at 0.1 µM was 25%.

The assay is the same for the next values; noted with them: 0.3 μM, TEA (30-45 mM) and BaCl2 (0.3 mM), read-out: constriction inhibitory ratio.
In the case of `CC(C)(C)O/N=C(/c1cccc(Br)c1)c1ncccc1O` [Compound 1, (Z)-2-(3-bromo-α-t-butoxyiminobenzyl)-3-hydroxypyridine], the inhibition at 0.3 µM was 59%.
For the compound `CC(C)(C)O/N=C(/c1cccc(Br)c1)c1c(O)ccc[n+]1[O-]` [Compound 3, (Z)-2-(3-bromo-α-t-butoxyiminobenzyl)-3-hydroxypyridine 1-oxide], the inhibition at 0.3 µM was 47%.
For `CC(C)(C)O/N=C(/c1ccc(Cl)cc1)c1c(O)ccc[n+]1[O-]` [Compound 7, (Z)-2-[α-(t-butoxyimino)-4-chlorobenzyl]-3-hydroxypyridine N-oxide], the inhibition at 0.3 µM was found to be 2%.
On to `CC(C)(C)O/N=C(/c1ccc(Cl)c(Cl)c1)c1c(O)ccc[n+]1[O-]` [Compound 11, (Z)-2-[α-(t-butoxyimino)-3,4-dichlorobenzyl]-3-hydroxypyridine N-oxide], for which the inhibition at 0.3 µM is 49%.
Still for that read-out and setting: the same measure for `CC(C)(C)O/N=C(/c1cc(Cl)cc(Cl)c1)c1ncccc1O` [Compound 13, (Z)-2-[α-(t-butoxyimino)-3,5-dichlorobenzyl]-3-hydroxypyridine]: 21%.
On the same count and under the same terms, the same measure for `CC(C)(C)O/N=C(/c1cccc(C(F)(F)F)c1)c1ncccc1O` [Compound 21, (Z)-2-[α-(t-butoxyimino)-3-trifluoromethylbenzyl]-3-hydroxypyridine]: 45%.
Take `CC(C)(C)O/N=C(/c1cccc([N+](=O)[O-])c1)c1ncccc1O` [Compound 23, (Z)-2-[α-(t-butoxyimino)-3-nitrobenzyl]-3-hydroxypyridine]: the inhibition at 0.3 µM was determined as 56%.
Turning to `CC(C)(C)N/N=C(\c1cccc(Br)c1)c1ncccc1O` [Compound 27, (E)-2-(3-bromo-α-t-butylhydrazinobenzyl)-3-hydroxypyridine], the inhibition at 0.3 µM is 100%.

Staying with this assay, now noted: 1 μM, TEA (30-45 mM) and BaCl2 (0.3 mM), read-out: constriction inhibitory ratio.
Consider `CC(C)(C)O/N=C(/c1cccc(Br)c1)c1c(O)ccc[n+]1[O-]` [Compound 3, (Z)-2-(3-bromo-α-t-butoxyiminobenzyl)-3-hydroxypyridine 1-oxide], for which the inhibition at 1 µM amounted to 97%.
For the compound `CC(C)(C)O/N=C(/c1ccc(Cl)cc1)c1c(O)ccc[n+]1[O-]` [Compound 7, (Z)-2-[α-(t-butoxyimino)-4-chlorobenzyl]-3-hydroxypyridine N-oxide], the inhibition at 1 µM came out at 72%.
With `CC(C)(C)O/N=C(/c1ccc(Cl)c(Cl)c1)c1c(O)ccc[n+]1[O-]` [Compound 11, (Z)-2-[α-(t-butoxyimino)-3,4-dichlorobenzyl]-3-hydroxypyridine N-oxide], the inhibition at 1 µM was 63%.
On to `CC(C)(C)O/N=C(/c1cc(Cl)cc(Cl)c1)c1ncccc1O` [Compound 13, (Z)-2-[α-(t-butoxyimino)-3,5-dichlorobenzyl]-3-hydroxypyridine], for which the inhibition at 1 µM came out at 53%.
With `CC(C)(C)O/N=C(/c1cccc(C(F)(F)F)c1)c1ncccc1O` [Compound 21, (Z)-2-[α-(t-butoxyimino)-3-trifluoromethylbenzyl]-3-hydroxypyridine], the inhibition at 1 µM was 100%.
Take `CC(C)(C)O/N=C(/c1cccc([N+](=O)[O-])c1)c1ncccc1O` [Compound 23, (Z)-2-[α-(t-butoxyimino)-3-nitrobenzyl]-3-hydroxypyridine]: the inhibition at 1 µM turned out to be 76%.

For a further assay, the system named is rat aorta preparations. The assay is described as follows: Vasorelaxant effect on rat aorta preparations: constriction induced by potassium chloride (KCl). As to conditions: 0.1 μM, KCl (80 mM), read-out: constriction inhibitory ratio. The class given is cell-based, Male Wistar rats. The procedure: as §5, §4
Effect on constriction induced by potassium chloride (KCl)
Method: This experiment was performed using KCl (80 mM) instead of TEA and BaCl2 used in Experimental Example 1. Apart from this, the procedures were substantially the same as in Experimental Example 1.
Take `CC(C)(C)O/N=C(/c1cccc(Br)c1)c1ncccc1O` [Compound 1, (Z)-2-(3-bromo-α-t-butoxyiminobenzyl)-3-hydroxypyridine]: the inhibition at 0.1 µM worked out at 0%.
With `CC(C)(C)O/N=C(/c1ccc(F)c(Br)c1)c1ncccc1O` [Compound 16, (Z)-2-(3-bromo-α-t-butoxyimino-4-fluorobenzyl)-3-hydroxypyridine], the inhibition at 0.1 µM stood at 4%.
For `CC(C)(C)N/N=C(\c1cccc(Br)c1)c1ncccc1O` [Compound 27, (E)-2-(3-bromo-α-t-butylhydrazinobenzyl)-3-hydroxypyridine], the inhibition at 0.1 µM came to 0%.

The assay is the same for the next values; noted with them: 0.3 μM, KCl (80 mM), read-out: constriction inhibitory ratio.
Consider `CC(C)(C)O/N=C(/c1cccc(Br)c1)c1ncccc1O` [Compound 1, (Z)-2-(3-bromo-α-t-butoxyiminobenzyl)-3-hydroxypyridine], for which the inhibition at 0.3 µM amounted to 0%.
For the compound `CC(C)(C)O/N=C(/c1cccc(Br)c1)c1c(O)ccc[n+]1[O-]` [Compound 3, (Z)-2-(3-bromo-α-t-butoxyiminobenzyl)-3-hydroxypyridine 1-oxide], the inhibition at 0.3 µM stood at 0%.
`CC(C)(C)O/N=C(/c1cccc(C(F)(F)F)c1)c1ncccc1O` [Compound 21, (Z)-2-[α-(t-butoxyimino)-3-trifluoromethylbenzyl]-3-hydroxypyridine]: the inhibition at 0.3 µM was 1%.
Take `CC(C)(C)O/N=C(/c1cccc([N+](=O)[O-])c1)c1ncccc1O` [Compound 23, (Z)-2-[α-(t-butoxyimino)-3-nitrobenzyl]-3-hydroxypyridine]: the inhibition at 0.3 µM worked out at 0%.
Consider `CC(C)(C)N/N=C(\c1cccc(Br)c1)c1ncccc1O` [Compound 27, (E)-2-(3-bromo-α-t-butylhydrazinobenzyl)-3-hydroxypyridine], for which the inhibition at 0.3 µM amounted to 0%.

The same assay, now with this note: 1 μM, KCl (80 mM), read-out: constriction inhibitory ratio.
With `CC(C)(C)O/N=C(/c1cccc(Br)c1)c1c(O)ccc[n+]1[O-]` [Compound 3, (Z)-2-(3-bromo-α-t-butoxyiminobenzyl)-3-hydroxypyridine 1-oxide], the inhibition at 1 µM came out at 2%.
Take `CC(C)(C)O/N=C(/c1ccc(Cl)cc1)c1c(O)ccc[n+]1[O-]` [Compound 7, (Z)-2-[α-(t-butoxyimino)-4-chlorobenzyl]-3-hydroxypyridine N-oxide]: the inhibition at 1 µM was 0%.
For `CC(C)(C)O/N=C(/c1ccc(Cl)c(Cl)c1)c1c(O)ccc[n+]1[O-]` [Compound 11, (Z)-2-[α-(t-butoxyimino)-3,4-dichlorobenzyl]-3-hydroxypyridine N-oxide], the inhibition at 1 µM stood at 0%.
On to `CC(C)(C)O/N=C(/c1cc(Cl)cc(Cl)c1)c1ncccc1O` [Compound 13, (Z)-2-[α-(t-butoxyimino)-3,5-dichlorobenzyl]-3-hydroxypyridine], for which the inhibition at 1 µM is 4%.
In the case of `CC(C)(C)O/N=C(/c1cccc(C(F)(F)F)c1)c1ncccc1O` [Compound 21, (Z)-2-[α-(t-butoxyimino)-3-trifluoromethylbenzyl]-3-hydroxypyridine], the inhibition at 1 µM came to 8%.
Consider `CC(C)(C)O/N=C(/c1cccc([N+](=O)[O-])c1)c1ncccc1O` [Compound 23, (Z)-2-[α-(t-butoxyimino)-3-nitrobenzyl]-3-hydroxypyridine], for which the inhibition at 1 µM amounted to 0%.

The next assay relates to normotensive rats (Wistar-Kyoto rats (WKY)). The assay can be described thus: Antihypertensive effect in rats (WKY). The class given is in vivo. As to conditions: 0.3 mg/kg orally. Here is the method: as §1, §2, §3
As to `CC(C)(C)O/N=C(/c1ccc(F)c(Br)c1)c1ncccc1O` [Compound 16, (Z)-2-(3-bromo-α-t-butoxyimino-4-fluorobenzyl)-3-hydroxypyridine], the “effect on blood pressure” value is reported as “no effect” and the “effect on heart rate” value is recorded as “no effect”.
